Results as given in PMC6630443 (Viruses, 2019).

Tested on: persistent USUV
Type: cell-based, Usutu virus

## NC(=O)c1ncn([C@@H]2O[C@H](CO)[C@@H](O)[C@H]2O)n1 [Ribavirin, 1-(β-D-Ribofuranosyl)-1H-1,2,4-triazole-3-carboxamide]
  USUV infectivity in supernatant after drug removal: re-emerged
  Viral RNA levels in cellular supernatant by day 10: barely detectable

## NC(=O)c1nc(F)cnc1O [Favipiravir, 6-fluoro-3-hydroxy-2-pyrazinecarboxamide]
  USUV infectivity in supernatant after drug removal: re-emerged
  Viral RNA levels in cellular supernatant by day 10: barely detectable
